# Data published in patent US12343326B2, “Psychoactive medicines and their use for treating psychiatric and neurological conditions and disorders” (Transcend Therapeutics, Inc., priority 2021, dated 2025).
# How the values were obtained:
# Assay in all cases: β-arrestin based GPCR screen (PathHunter / GPCRmax), antagonist mode
# [1] = molecular target: 168 GPCRs (Homo sapiens, UniProt P08912); details: CHRM5, Antagonist
# [2] = molecular target: 168 GPCRs (Homo sapiens, UniProt P11229); details: CHRM1, Antagonist
# Chain of 168 GPCRs (Homo sapiens, UniProt P11229) (P11229 whole entry): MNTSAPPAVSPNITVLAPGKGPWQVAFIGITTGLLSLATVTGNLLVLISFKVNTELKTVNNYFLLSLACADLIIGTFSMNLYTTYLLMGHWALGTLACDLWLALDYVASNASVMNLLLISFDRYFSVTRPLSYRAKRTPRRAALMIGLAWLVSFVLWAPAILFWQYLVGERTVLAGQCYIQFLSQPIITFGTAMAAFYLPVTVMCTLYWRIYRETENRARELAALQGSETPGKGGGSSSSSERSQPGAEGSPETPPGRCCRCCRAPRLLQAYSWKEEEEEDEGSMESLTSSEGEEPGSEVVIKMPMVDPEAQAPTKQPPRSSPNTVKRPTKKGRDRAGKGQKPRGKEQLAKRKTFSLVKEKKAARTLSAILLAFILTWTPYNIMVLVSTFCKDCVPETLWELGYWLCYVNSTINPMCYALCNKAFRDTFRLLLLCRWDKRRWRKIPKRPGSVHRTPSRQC
# [3] = molecular target: 168 GPCRs (Homo sapiens, UniProt P20309); details: CHRM3, Antagonist
# [4] = molecular target: 168 GPCRs (Homo sapiens, UniProt P21452)
# [5] = molecular target: 168 GPCRs (Homo sapiens, UniProt P21554)
# Chain of 168 GPCRs (Homo sapiens, UniProt P21554) (P21554 whole entry): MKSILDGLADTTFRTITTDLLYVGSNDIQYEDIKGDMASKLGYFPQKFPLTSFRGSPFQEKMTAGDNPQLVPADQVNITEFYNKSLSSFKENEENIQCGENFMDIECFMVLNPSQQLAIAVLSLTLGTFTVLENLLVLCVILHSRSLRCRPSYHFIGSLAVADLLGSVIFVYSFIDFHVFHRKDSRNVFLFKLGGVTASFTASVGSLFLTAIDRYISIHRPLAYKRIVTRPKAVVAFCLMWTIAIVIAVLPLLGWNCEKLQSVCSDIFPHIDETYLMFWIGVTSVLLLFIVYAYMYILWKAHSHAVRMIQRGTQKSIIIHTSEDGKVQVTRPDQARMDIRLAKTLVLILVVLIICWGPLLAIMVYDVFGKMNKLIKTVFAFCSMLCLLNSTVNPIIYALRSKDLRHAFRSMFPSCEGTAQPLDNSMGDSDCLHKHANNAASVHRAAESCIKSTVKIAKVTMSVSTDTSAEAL
# [6] = molecular target: 168 GPCRs (Homo sapiens, UniProt P21731); details: TBXA2R
# Chain of 168 GPCRs (Homo sapiens, UniProt P21731) (P21731 whole entry): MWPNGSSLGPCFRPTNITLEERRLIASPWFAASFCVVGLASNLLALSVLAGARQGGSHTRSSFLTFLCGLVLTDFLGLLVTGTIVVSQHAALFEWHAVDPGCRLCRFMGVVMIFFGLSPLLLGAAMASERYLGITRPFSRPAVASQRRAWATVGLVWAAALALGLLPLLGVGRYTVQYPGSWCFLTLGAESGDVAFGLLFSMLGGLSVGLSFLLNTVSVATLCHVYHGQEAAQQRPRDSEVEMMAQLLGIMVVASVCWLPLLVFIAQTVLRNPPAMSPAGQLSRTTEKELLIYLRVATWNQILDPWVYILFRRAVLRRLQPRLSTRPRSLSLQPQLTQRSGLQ
# [7] = molecular target: 168 GPCRs (Homo sapiens, UniProt P21918)
# Chain of 168 GPCRs (Homo sapiens, UniProt P21918) (P21918 whole entry): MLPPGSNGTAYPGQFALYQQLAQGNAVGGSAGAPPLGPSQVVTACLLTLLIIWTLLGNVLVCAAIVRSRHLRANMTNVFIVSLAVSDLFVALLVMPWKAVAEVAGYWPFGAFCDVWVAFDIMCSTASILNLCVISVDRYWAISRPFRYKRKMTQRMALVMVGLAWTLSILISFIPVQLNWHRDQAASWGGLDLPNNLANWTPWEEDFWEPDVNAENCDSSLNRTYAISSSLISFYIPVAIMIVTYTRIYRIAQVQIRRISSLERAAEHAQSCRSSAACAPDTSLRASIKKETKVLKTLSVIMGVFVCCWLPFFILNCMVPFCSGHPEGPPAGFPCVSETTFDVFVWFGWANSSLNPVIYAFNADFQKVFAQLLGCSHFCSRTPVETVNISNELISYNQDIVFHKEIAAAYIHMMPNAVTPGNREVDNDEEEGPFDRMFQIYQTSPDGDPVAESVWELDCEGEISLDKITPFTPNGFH
# [8] = molecular target: 168 GPCRs (Homo sapiens, UniProt P22888); details: LHCGR
# [9] = molecular target: 168 GPCRs (Homo sapiens, UniProt P25116); details: F2F, Antagonist mode, 10 uM
# [10] = molecular target: 168 GPCRs (Homo sapiens, UniProt P25929); details: NPY1R
# Chain of 168 GPCRs (Homo sapiens, UniProt P25929) (P25929 whole entry): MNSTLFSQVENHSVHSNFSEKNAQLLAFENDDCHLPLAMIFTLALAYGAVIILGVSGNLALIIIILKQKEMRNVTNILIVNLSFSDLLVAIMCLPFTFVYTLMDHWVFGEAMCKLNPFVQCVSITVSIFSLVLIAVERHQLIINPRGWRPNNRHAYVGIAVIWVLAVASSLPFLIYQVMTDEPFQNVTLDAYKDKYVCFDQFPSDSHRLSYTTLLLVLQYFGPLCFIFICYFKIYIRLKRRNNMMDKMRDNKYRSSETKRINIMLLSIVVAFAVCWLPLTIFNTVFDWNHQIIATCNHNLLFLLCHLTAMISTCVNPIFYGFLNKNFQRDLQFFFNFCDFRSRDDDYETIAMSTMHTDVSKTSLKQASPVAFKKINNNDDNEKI
# [11] = molecular target: 168 GPCRs (Homo sapiens, UniProt P28222); details: HTR1B
# Chain of 168 GPCRs (Homo sapiens, UniProt P28222) (P28222 whole entry): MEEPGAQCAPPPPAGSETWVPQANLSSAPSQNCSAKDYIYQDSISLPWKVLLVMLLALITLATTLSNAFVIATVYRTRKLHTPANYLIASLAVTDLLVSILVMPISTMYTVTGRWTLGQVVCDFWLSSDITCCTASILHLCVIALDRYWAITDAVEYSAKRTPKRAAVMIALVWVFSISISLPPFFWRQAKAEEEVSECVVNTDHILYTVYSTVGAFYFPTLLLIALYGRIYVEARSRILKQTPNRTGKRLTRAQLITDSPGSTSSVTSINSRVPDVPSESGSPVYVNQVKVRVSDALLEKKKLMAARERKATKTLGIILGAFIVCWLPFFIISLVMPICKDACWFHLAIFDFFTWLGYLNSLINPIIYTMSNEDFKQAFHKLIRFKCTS
# [12] = molecular target: 168 GPCRs (Homo sapiens, UniProt P30559); details: OXTR
# Chain of 168 GPCRs (Homo sapiens, UniProt P30559) (P30559 whole entry): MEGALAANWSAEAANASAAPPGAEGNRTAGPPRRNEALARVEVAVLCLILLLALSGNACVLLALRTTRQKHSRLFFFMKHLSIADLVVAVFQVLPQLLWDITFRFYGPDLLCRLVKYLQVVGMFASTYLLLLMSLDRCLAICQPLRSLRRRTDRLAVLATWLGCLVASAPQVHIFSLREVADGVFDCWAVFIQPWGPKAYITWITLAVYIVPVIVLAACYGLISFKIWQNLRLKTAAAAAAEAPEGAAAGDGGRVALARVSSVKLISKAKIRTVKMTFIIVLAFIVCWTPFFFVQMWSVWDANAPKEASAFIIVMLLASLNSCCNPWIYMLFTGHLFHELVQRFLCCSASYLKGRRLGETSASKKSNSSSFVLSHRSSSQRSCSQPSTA
# [13] = molecular target: 168 GPCRs (Homo sapiens, UniProt P30872)
# Chain of 168 GPCRs (Homo sapiens, UniProt P30872) (P30872 whole entry): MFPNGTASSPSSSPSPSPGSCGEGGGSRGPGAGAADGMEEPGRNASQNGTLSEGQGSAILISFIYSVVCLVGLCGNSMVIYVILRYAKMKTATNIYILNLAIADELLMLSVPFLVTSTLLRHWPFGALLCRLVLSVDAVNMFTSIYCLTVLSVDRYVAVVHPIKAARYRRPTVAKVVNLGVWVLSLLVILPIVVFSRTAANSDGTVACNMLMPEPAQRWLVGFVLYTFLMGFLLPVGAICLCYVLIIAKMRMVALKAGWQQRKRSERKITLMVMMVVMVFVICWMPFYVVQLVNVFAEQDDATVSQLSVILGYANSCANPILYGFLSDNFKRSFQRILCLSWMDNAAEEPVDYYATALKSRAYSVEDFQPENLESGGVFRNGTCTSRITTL
# [14] = molecular target: 168 GPCRs (Homo sapiens, UniProt P32245); details: MC4R
# [15] = molecular target: 168 GPCRs (Homo sapiens, UniProt P47211)
# [16] = molecular target: 168 GPCRs (Homo sapiens, UniProt P48146)
# Chain of 168 GPCRs (Homo sapiens, UniProt P48146) (P48146 whole entry): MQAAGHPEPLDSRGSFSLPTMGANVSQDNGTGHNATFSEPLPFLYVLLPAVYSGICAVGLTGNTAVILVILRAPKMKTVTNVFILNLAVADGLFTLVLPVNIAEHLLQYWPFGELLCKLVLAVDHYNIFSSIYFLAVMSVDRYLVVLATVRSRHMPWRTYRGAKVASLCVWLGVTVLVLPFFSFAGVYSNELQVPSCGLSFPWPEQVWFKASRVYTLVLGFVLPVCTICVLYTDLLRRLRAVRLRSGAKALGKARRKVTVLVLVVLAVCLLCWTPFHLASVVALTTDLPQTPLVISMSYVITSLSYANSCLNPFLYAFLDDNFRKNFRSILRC
# [17] = molecular target: 168 GPCRs (Homo sapiens, UniProt P49238)
# [18] = molecular target: 168 GPCRs (Homo sapiens, UniProt Q8TDS5)
# Chain of 168 GPCRs (Homo sapiens, UniProt Q8TDS5) (Q8TDS5 whole entry): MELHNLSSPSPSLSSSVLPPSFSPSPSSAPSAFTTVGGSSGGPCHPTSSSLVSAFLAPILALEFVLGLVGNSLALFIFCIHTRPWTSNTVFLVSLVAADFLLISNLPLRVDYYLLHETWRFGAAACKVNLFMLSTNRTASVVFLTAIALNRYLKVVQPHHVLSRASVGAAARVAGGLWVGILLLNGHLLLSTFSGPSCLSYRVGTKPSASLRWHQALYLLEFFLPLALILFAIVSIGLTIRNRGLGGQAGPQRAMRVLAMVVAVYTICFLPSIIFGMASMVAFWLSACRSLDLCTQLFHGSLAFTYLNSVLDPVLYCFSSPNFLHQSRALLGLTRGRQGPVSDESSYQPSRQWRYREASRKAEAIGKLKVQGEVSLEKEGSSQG
# [19] = molecular target: 168 GPCRs (Homo sapiens, UniProt Q99705)
# Chain of 168 GPCRs (Homo sapiens, UniProt Q99705) (Q99705 whole entry): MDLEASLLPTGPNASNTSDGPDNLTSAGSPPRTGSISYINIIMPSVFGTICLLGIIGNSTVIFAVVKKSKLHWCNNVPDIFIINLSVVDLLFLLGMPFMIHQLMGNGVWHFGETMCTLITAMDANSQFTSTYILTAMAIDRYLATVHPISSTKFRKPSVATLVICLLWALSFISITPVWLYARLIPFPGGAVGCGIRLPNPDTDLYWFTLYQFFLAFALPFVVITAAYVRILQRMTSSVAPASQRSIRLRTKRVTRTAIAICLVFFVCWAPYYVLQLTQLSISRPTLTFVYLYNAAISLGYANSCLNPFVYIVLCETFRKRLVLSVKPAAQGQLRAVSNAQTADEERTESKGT
# [20] = molecular target: 168 GPCRs (Homo sapiens, UniProt Q9H1C0)
# [21] = molecular target: 168 GPCRs (Homo sapiens, UniProt Q9HBW0)
# [22] = molecular target: 168 GPCRs (Homo sapiens, UniProt Q9HC97)
# Chain of 168 GPCRs (Homo sapiens, UniProt Q9HC97) (Q9HC97 whole entry): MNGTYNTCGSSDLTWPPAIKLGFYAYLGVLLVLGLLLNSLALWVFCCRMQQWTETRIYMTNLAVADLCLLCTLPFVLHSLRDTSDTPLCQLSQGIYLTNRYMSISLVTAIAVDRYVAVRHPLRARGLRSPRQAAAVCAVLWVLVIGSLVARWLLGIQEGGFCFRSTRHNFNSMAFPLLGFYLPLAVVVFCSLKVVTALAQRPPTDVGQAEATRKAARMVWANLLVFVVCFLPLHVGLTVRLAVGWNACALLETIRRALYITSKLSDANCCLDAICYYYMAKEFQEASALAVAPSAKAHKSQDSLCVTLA
# [23] = test system: 168 GPCRs
smiles,measurement,setting,value
"CNC(C)C(=O)c1ccc2c(c1)OCO2 (stereo not drawn) [methylone, 3,4-methylenedioxy-N-methylcathinone]",activity at 1 µM,[1]; 1 uM,-8%
same,activity at 10 µM,[1]; 10 uM,-7.6%
same,activity at 1 µM,[2]; 1 uM,15.8%
same,activity at 10 µM,[2]; 10 uM,2%
same,activity at 1 µM,[3]; 1 uM,-5.5%
same,activity at 10 µM,[3]; 10 uM,14.6%
same,activity at 10 µM,"[4]; TACR2, Antagonist mode, 10 uM",9.1%
same,activity at 1 µM,"[4]; TACR2, Antagonist, 1 uM",10%
same,activity at 10 µM,"[5]; CNR1, Antagonist mode, 10 uM",-17.1%
same,activity at 1 µM,"[5]; CNR1, Antagonist, 1 uM",-3.5%
same,activity at 10 µM,"[6]; Antagonist mode, 10 uM",-19.7%
same,activity at 1 µM,"[6]; Antagonist, 1 uM",-5.5%
same,activity at 10 µM,"[7]; DRD5, Antagonist mode, 10 uM",-2.6%
same,activity at 1 µM,"[7]; DRD5, Antagonist, 1 uM",-5.9%
same,activity at 10 µM,"[8]; Antagonist mode, 10 uM",11.2%
same,activity at 1 µM,"[8]; Antagonist, 1 uM",13.8%
same,activity at 10 µM,[9],-11.4%
same,activity at 10 µM,"[10]; Antagonist mode, 10 uM",5.4%
same,activity at 1 µM,"[10]; Antagonist, 1 uM",0.2%
same,activity at 10 µM,"[11]; Antagonist mode, 10 uM",-6.2%
same,activity at 1 µM,"[11]; Antagonist, 1 uM",-9.5%
same,activity at 10 µM,"[12]; Antagonist mode, 10 uM",6.9%
same,activity at 1 µM,"[12]; Antagonist, 1 uM",12.7%
same,activity at 10 µM,"[13]; SSTR1, Antagonist mode, 10 uM",20.9%
same,activity at 1 µM,"[13]; SSTR1, Antagonist, 1 uM",32.4%
same,activity at 10 µM,"[14]; Antagonist mode, 10 uM",-14%
same,activity at 1 µM,"[14]; Antagonist, 1 uM",-5.2%
same,activity at 10 µM,"[15]; GALR1, Antagonist mode, 10 uM",6.8%
same,activity at 1 µM,"[15]; GALR1, Antagonist, 1 uM",7.1%
same,activity at 10 µM,"[16]; NPBWR2, Antagonist mode, 10 uM",-14%
same,activity at 1 µM,"[16]; NPBWR2, Antagonist, 1 uM",-14.1%
same,activity at 10 µM,"[17]; CX3CR1, Antagonist mode, 10 uM",-6.1%
same,activity at 1 µM,"[17]; CX3CR1, Antagonist, 1 uM",-0.2%
same,activity at 10 µM,"[18]; OXER1, Antagonist mode, 10 uM",7.6%
same,activity at 1 µM,"[18]; OXER1, Antagonist, 1 uM",2.9%
same,activity at 10 µM,"[19]; MCHR1, Antagonist mode, 10 uM",-18.3%
same,activity at 1 µM,"[19]; MCHR1, Antagonist, 1 uM",-12.2%
same,activity at 10 µM,"[20]; GPR92, Antagonist mode, 10 uM",5.8%
same,activity at 1 µM,"[20]; GPR92, Antagonist, 1 uM",-8%
same,activity at 10 µM,"[21]; EDG4, Antagonist mode, 10 uM",-21%
same,activity at 1 µM,"[21]; EDG4, Antagonist, 1 uM",-10.2%
same,activity at 10 µM,"[22]; GPR35, Antagonist mode, 10 uM",7.3%
same,activity at 1 µM,"[22]; GPR35, Antagonist, 1 uM",13.2%
same,antagonist activity at any of the 168 GPCRs (criterion >50% inhibition),[23]; 1 and 10 micromolar,did not meet criteria for agonist or antagonist activity
same,% Activity,"[23]; DRD2S, Antagonist mode, 10 uM",−11.6%
same,% Activity,"[23]; DRD2S, Antagonist, 1 uM",3.6%
same,% Activity,"[23]; NPSR1b, Antagonist mode, 10 uM",−7.6%
same,% Activity,"[23]; NPSR1b, Antagonist, 1 uM",−10.6%
